Measured values taken from patent US10065961B2, “Chiral N-acyl-5,6,7,(8-substituted)-tetrahydro-[1,2,4]triazolo[4,3-a]pyrazines as selective NK-3 receptor antagonists, pharmaceutical composition, methods for use in NK-3 receptor mediated disorders and chiral synthesis thereof” (Euroscreen S.A., priority 2011, dated 2018).

Tests used:
[1] = tested on: plasma testosterone levels; assay: Gonad-intact adult male rat, circulating levels of testosterone; details: gonad-intact male Sprague-Dawley rats, single intravenous 50 mg/kg dose, over 210 minute test period (AUC)
circulating LH levels = assay: Castrated male rat model, circulating levels of luteinizing hormone (LH); type: in vivo; details: castrated male Sprague-Dawley rats, single intravenous 10 mg/kg dose, 1 hour after dosing
Protocol: 1 on lutenizing hormone (‘LH’) plasma levels in castrated male, Sprague-Dawley rats measured 1 hour after dosing. […] Vehicle, N=10 rats; Compound no. 1, N=9 rats.
19 on lutenizing hormone (‘LH’) plasma levels in castrated male, Sprague-Dawley rats measured 1 hour after dosing. […] Vehicle, n=5 rats; Compound no. 19, n=5 rats.
Castrated Male Rat Model to Assess the Effect of Compound of Invention on Circulating Levels of Luteinizing Hormone (LH).
In humans and rodents, castration is well-precedented to permit heightened, persistent GnRH signaling and consequent elevation of circulating LH. Thus, a castrated rat model is used to provide a broad index for measurement of LH inhibition as a marker of test compound inhibition of the GnRH signaling pathway.
Castrated adult male Sprague-Dawley (SD) rats (150-175 g,) were purchased from Janvier (St Berthevin, France). […] The animals were allowed 2 weeks of postoperative recovery prior to study. Animals were handled on a daily basis. Standard diet and tap water were provided ad libitum. Animal cage litters were changed once a week. […]
After basal sampling (T0) a single dose of compounds of the invention or vehicle was administrated intravenously to rats. […] Serum LH levels were determined using radioimmunoassay kit from RIAZEN—Rat LH, Zentech (Liège, Belgium). […]

human NK1 receptor = human NK1 receptor (Homo sapiens (Human), UniProt P25103); assay: Human NK1 radioligand binding assay ([3H] substance P)
Protocol: (§1) Membrane suspensions were prepared from these cells.

human NK2 receptor = human NK2 receptor (Homo sapiens (Human), UniProt P21452); assay: Human NK2 radioligand binding assay ([125I]-Neurokinin A)
Protocol: as §1

Chain of human NK1 receptor (P25103 whole entry): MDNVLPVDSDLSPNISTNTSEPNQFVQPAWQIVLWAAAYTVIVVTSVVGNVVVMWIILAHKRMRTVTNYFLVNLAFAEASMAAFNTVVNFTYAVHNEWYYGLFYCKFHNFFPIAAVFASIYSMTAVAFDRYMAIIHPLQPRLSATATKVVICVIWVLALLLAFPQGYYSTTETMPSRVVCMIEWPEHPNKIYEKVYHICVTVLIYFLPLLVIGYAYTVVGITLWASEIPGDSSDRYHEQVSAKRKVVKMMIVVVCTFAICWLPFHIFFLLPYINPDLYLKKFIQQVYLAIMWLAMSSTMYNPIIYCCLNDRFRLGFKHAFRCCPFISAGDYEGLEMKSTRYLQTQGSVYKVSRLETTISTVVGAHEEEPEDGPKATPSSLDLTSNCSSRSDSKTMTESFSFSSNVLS
Chain of human NK2 receptor (P21452 whole entry): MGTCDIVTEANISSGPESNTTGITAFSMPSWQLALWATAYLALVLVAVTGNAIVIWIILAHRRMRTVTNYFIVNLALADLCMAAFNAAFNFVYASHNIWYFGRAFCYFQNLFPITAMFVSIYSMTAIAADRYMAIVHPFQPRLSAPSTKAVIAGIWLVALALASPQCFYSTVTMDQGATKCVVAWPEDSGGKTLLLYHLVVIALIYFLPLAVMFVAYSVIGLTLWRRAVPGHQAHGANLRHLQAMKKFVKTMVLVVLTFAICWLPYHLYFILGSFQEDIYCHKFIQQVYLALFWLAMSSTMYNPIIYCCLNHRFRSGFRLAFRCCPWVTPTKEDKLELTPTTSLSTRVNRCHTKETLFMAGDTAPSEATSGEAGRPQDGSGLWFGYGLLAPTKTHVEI

| SMILES | plasma testosterone levels [1] | circulating LH levels (circulating LH levels) | inhibition at 10 µM (human NK1 receptor) | inhibition at 10 µM (human NK2 receptor) |
| --- | --- | --- | --- | --- |
| Cc1nc(-c2nnc3n2CCN(C(=O)c2ccc(-c4cccs4)cc2)[C@@H]3C)cs1 [Compound no. 1, (R)-(8-methyl-3-(2-methylthiazol-4-yl)-5,6-dihydro-[1,2,4]triazolo[4,3-a]pyrazin-7(8H)-yl)(4-(thiophen-2-yl)phenyl)methanone] | significantly suppressed | significantly suppressed |  |  |
| Cc1csc(-c2nnc3n2CCN(C(=O)c2ccc(-c4cccs4)cc2)[C@@H]3C)n1 [Compound no. 19, (R)-(8-methyl-3-(4-methylthiazol-2-yl)-5,6-dihydro-[1,2,4]triazolo[4,3-a]pyrazin-7(8H)-yl)(4-(thiophen-2-yl)phenyl)methanone] |  | significantly suppressed |  |  |
| Cc1nc(-c2nnc3n2CCN(C(=O)c2ccc(-c4cccs4)cc2)C3)cs1 [compound 3, (3-(2-methylthiazol-4-yl)-5,6-dihydro-[1,2,4]triazolo[4,3-a]pyrazin-7(8H)-yl)(4-(thiophen-2-yl)phenyl)methanone] |  |  | < 10% | < 10% |
| Cc1nc(-c2nnc3n2CCN(C(=O)c2ccc(-c4cccs4)cc2)[C@@H]3C)co1 [compound 11, (R)-(8-methyl-3-(2-methyloxazol-4-yl)-5,6-dihydro-[1,2,4]triazolo[4,3-a]pyrazin-7(8H)-yl)(4-(thiophen-2-yl)phenyl)methanone] |  |  | < 10% | < 25% |
| C[C@@H]1c2nnc(-c3cccc(O)n3)n2CCN1C(=O)c1ccc(-c2cccs2)cc1 [compound 31, (R)-(3-(6-hydroxypyridin-2-yl)-8-methyl-5,6-dihydro-[1,2,4]triazolo[4,3-a]pyrazin-7(8H)-yl)(4-(thiophen-2-yl)phenyl)methanone] |  |  | < 10% | < 10% |
